# Assays:
# Angiotensin II receptor = biological target: T1, Angiotensin II receptor (Rattus norvegicus, UniProt P29089+P25095+P35351); assay: Angiotensin II receptor antagonist activity was determined by 50% inhibition of specific binding of [3H]angiotensin II (2 nM) to rat adrenal cortical microsomes
# T1 sequence (P29089 whole entry): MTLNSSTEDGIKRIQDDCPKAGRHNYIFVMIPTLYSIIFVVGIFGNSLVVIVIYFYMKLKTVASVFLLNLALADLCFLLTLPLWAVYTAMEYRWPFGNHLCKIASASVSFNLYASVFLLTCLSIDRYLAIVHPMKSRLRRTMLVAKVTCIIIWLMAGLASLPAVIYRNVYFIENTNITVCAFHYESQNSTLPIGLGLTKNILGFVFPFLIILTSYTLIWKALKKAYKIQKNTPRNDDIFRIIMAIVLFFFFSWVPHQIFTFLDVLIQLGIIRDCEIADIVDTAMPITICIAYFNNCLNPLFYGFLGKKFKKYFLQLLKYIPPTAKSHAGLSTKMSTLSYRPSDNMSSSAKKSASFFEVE
# T1 sequence (P25095 whole entry): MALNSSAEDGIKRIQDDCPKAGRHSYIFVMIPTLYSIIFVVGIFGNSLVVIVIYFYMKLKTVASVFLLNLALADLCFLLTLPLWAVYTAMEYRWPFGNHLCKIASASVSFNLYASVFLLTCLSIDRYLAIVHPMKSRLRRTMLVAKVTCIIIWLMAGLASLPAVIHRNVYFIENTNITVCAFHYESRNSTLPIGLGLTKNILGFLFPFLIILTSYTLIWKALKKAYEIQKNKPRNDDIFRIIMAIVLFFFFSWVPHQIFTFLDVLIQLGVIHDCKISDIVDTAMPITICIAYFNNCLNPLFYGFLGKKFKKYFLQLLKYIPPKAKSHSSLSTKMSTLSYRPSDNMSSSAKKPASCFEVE
# T1 sequence (P35351 whole entry): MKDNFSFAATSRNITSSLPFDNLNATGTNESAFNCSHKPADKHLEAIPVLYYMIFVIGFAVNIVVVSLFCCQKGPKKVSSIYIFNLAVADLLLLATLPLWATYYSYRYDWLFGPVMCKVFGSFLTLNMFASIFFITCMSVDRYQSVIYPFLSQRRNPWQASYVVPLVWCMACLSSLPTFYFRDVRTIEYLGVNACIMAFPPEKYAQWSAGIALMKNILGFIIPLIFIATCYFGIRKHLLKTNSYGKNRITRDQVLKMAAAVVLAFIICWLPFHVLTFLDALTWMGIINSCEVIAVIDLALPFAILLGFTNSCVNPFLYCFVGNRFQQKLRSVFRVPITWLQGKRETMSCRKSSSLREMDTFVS
# Rattus norvegicus [1] = assay: The compound was tested for antihypertensive activity in renal hypertensive rat after intravenous administration; assay type: functional
# Rattus norvegicus [2] = assay: The compound was tested for antihypertensive activity in renal hypertensive rat after oral administration; assay type: functional
Structure (SMILES),IC50 (Angiotensin II receptor),ED30 (Rattus norvegicus [1]),ED30 (Rattus norvegicus [2])
CCCc1nc(C(F)(F)C(F)(F)C(F)(F)F)c(CO)n1Cc1ccc(-c2ccccc2-c2nn[nH]n2)cc1,13 nM,,
CCCc1nc(C(F)(F)C(F)(F)F)c(CO)n1Cc1ccc(-c2ccccc2C(=O)O)cc1,48 nM,,
CCCc1nc(C(F)(F)C(F)(F)F)c(CO)n1Cc1ccc(-c2ccccc2-c2nn[nH]n2)cc1,1.2 nM,,
CCCc1nc(C(F)(F)C(F)(F)C(F)(F)C(F)(F)C(F)(F)C(F)(F)F)c(CO)n1Cc1ccc(-c2ccccc2C(=O)O)cc1,2500 nM,,
CCCc1nc(C(F)(F)F)c(CO)n1Cc1ccc(-c2ccccc2-c2nn[nH]n2)cc1,6.4 nM,,
CCCc1nc(C(F)(F)C(F)(F)C(F)(F)F)c(C(=O)O)n1Cc1ccc(-c2ccccc2-c2nn[nH]n2)cc1,,0.62 mg/kg,
CCCc1nc(C(F)(F)F)c(CO)n1Cc1ccc(-c2ccccc2C(=O)O)cc1,130 nM,,
CCCc1nc(C(F)(F)C(F)(F)C(F)(F)F)c(CO)n1Cc1ccc(-c2ccccc2C(=O)O)cc1,74 nM,,
CCCc1nc(C(F)(F)C(F)(F)C(F)(F)C(F)(F)F)c(CO)n1Cc1ccc(-c2ccccc2C(=O)O)cc1,290 nM,,
CCCc1nc(C(F)(F)F)c(C(=O)O)n1Cc1ccc(-c2ccccc2-c2nn[nH]n2)cc1,,0.01 mg/kg,0.79 mg/kg
CCCc1nc(C(F)(F)C(F)(F)F)c(C(=O)O)n1Cc1ccc(-c2ccccc2-c2nn[nH]n2)cc1,,0.042 mg/kg,0.21 mg/kg
CCCCc1nc(Cl)c(C(=O)O)n1Cc1ccc(-c2ccccc2-c2nn[nH]n2)cc1 [CARBOXYLIC ACID METABOLITE],,0.038 mg/kg,0.66 mg/kg

# Reference: ChEMBL document CHEMBL1126477 (Bioorg Med Chem Lett, 1993)
